Experimental data reported in patent publication US11406642B2, “DNP and DNP prodrug treatment of neuromuscular, neurodegenerative, autoimmune, developmental, traumatic brain injury, concussion, dry eye disease, hearing loss and/or metabolic diseases” (priority 2016, dated 2022).
“Also recorded” adds a separate entry of the source.

Legend:
[1] = Stability in simulated gastric fluid (SGF), pH 1.2; assay type: in vitro ADME; conditions: pH 1.2, 37° C.
Description: GI: Stability in simulated gastric fluid (USP, 37° C.)
(§1) HPLC analysis was carried out on an Agilent 1200 Infinity Series Quatpump, equipped with a photodiode array detector and a computer integrating apparatus. An Inertsil ODS-3 column, C18, 5 μm, 4.6×50 mm (GL Science Inc. Japan) protected with a guard column: Alltima C18, 5 μm, 4.6×7.5 mm (Grace Discovery Sciences, IL, USA) was used as the stationary phase. An isocratic method with a mobile phase consisting of water/acetonitrile (70:30) containing 0.05% formic acid in each was used. A flow rate of 0.9 mL/min was used and detection was carried out at a UV wavelength of 250 nm.
To formulate 1 mg/mL of II-38 in SGF, 3.1 mg of II-38 was dissolved in 0.155 mL of DMSO (i.e. 5%) and added slowly and gradually to a total volume of 2.945 mL of preheated SGF (Table 3) in a cell diffusion chamber preheated to 37° C. The solution was mixed for 30 sec. every half an hour using magnetic stirrer. Samples of 20 μL (20 μg/mL of II-38) were collected at 0, 1, 2, 4, 6 and 8 h. Each sample was mixed with acetonitrile QS to 1 mL, vortex-mixed for 30 sec and centrifuged at 10,000 rpm at room temp. A volume of 10 μL of the supernatant was injected into the HPLC spectrometer.

[2] = Stability in human plasma; assay type: in vitro ADME; conditions: 80% human plasma, 37° C.
Description: Plasma: Stability in rat and human plasma (37° C.)
as §1
Formulation of II-38 in human plasma: to prepare 1 mg/mL of II-38, 2.3 mg of II-38 was formulated in DMSO (5%) and added slowly and gradually to a total volume of 2.185 mL of premixed human plasma (80%+PBS 15%, see Table 6) in a Franz cell diffusion chamber preheated to 37° C. The solution was mixed for a min every half an hour using magnetic stirrer. Samples of 20 μL (20 μg/mL of II-38) were collected at 0, 0.5, 1, 2, 4, 6 and 8 h. Each sample was mixed with acetonitrile QS to 1 mL, vortex-mixed for 30 sec and centrifuged at 10,000 rpm at room temp. A volume of 10 μL of the supernatant was injected into the HPLC spectrometer.

[3] = Stability of II-38 in phosphate buffer, pH 7.4; assay type: physicochemical; conditions: pH 7.4, 37° C., 5% DMSO, within 8 h
Description: pH: Stability in aqueous buffers (37° C., pHs 1.2 and 7.4)
as §1
Formulation of II-38 in phosphate buffer (PB): to formulate 1 mg/mL of II-38 in PB, 2.6 mg of II-38 was formulated in 0.13 mL of DMSO (i.e. 5%) and added slowly and gradually to a total volume of 2.47 mL of preheated PB (Table 2) in a Franz cell diffusion chamber preheated to 37° C. The solution was mixed for 30 sec every half an hour using magnetic stirrer. Samples of 20 μL (20 ug/mL of II-38) were collected at 0, 0.5, 1, 2, 4, 6 and 8 h. Each sample was mixed with acetonitrile QS to 1 mL, vortex-mixed for 30 sec and centrifuged at 10,000 rpm at room temp. A volume of 10 μL of the supernatant was injected into the HPLC spectrometer.

[4] = tested on: EAE mouse model of Multiple Sclerosis; test: EAE MS model (clinical score, body weight); assay type: in vivo; conditions: for progression of paralysis monitored as Clinical Score: administered 7-days after induction of MOG35-55 myelin peptide; for weight loss / body weight changes: versus Placebo mice
Text: FIG. 1 is a chart illustrating the comparative effect of two compounds of the invention at lowering or blocking progression of paralysis as monitored as a Clinical Score (EAE MS model comparing parent (2,4-DNP) to prodrug (II-38) at equivalent exposures of 5 mpk parent to […] prodrug for efficacy). Legend: diamond—placebo; square—2,4-DNP 5 mpk; triangle—II-38 8 mpk; x—II-38 16 mpk; asterisk—II-38 80 mpk. P values by Ordinal Regression: 2,4-DNP 5 mpk=0.0192; II-38 8 mpk=0.000954; II-38 16 mpk=0.000124; II-38 80 mpk=0.00014 (results from logistic regression model using ordinal package from cran project, www.cran.r-project.org).
Legend: diamond—placebo; square—2,4-DNP 5 mpk; triangle—II-38 8 mpk; x—II-38 16 mpk; asterisk—II-38 80 mpk. All doses significant to preserving body weight. P values by Ordinal Regression: 2,4-DNP 5 mpk=0.0188; II-38 8 mpk<0.0001; II-38 16 mpk=0.044; II-38 80 mpk<0.0001.
In one embodiment, the compositions and methods of the invention relate to a pharmacological intervention that abolishes overt ROS production and improves the quality of the mitochondrial population by mitophagy, induces Brain Derived Neurotrophin Factor (BDNF), increases cAMP, and/or remodels cellular expression. In one embodiment, a drug of the invention thus becomes “disease modifying.” In one embodiment, a prodrug of DNP (II-38) was administered to a mouse model of Multiple Sclerosis, called the EAE, 7-days after induction of the MOG35-55 myelin peptide. The ProDrug of DNP, II-38, was administered at multiples of exposure to 2,4-DNP or DNP. […] Even though DNP historically was used in the 1930's for weight loss at high doses, here it is shown that it can paradoxically be repositioned to prevent wasting associated with neurodegenerative/autoimmune diseases at low doses.

[5] = 28-day toxicity studies; assay type: in vivo; conditions: low doses
Text: (§2) Overt reactive oxygen species (ROSs) can be produced due to noise and certain ototoxic drugs that can damage the hair cells of the ear, resulting in either temporary or permanent hearing loss. Exposure to blast waves and continuous noise not only damaged the inner ear, but caused cell death in the hippocampus, suppressed neurogenesis and impaired memory function. Aging as well can manifest in mitochondrial dysfunction leading to hearing loss. It is emerging that attempts to treat hearing loss by targeting downstream issues is not very effective. In one embodiment, the compositions and methods of the invention relate to targeting oxidative stress upstream at the mitochondria that may be causative for many disorders. There have been a variety of attempts to lower cellular stress, such as administering anti-oxidants, however these drugs have limited tissue penetration into the brain and lower ROSs after they have been formed. […] While not being bound to theory, it is postulated that DNP modulates the mitochondrial membrane potential having a significant impact at preventing ROS formation in isolated mitochondria and in the treated wildtype mice. DNP treatment 3-hours post-ischemia reduced cerebral infarct volume 40% by protecting the penumbra or “threaten tissue” and could provide similar benefits after a blast to protect inner hair cells from eminent cell death. […]

[6] = tested on: ion channels; test: Inhibition of ion channels
Text: as §2

SMILES | stability in SGF [1] | hydrolysis in human plasma [2] | hydrolysis / stability in phosphate buffer [3] | progression of paralysis monitored as Clinical Score [4] | weight loss / body weight changes [4] | Safety Index [5] | toxicity [5] | inhibition to ion channels [6]
O=C(Oc1ccc([N+](=O)[O-])cc1[N+](=O)[O-])N1CCOCC1 [II-38, 2,4-Dinitrophenyl morpholine-4-carboxylate] | stable | cleaved in the plasma to produce 2,4-DNP at a slow rate | no significant hydrolysis; also recorded: did not show significant hydrolysis; also recorded: no evidence of 2,4-DNP formation | striking effect at lowering or blocking progression of paralysis | preventing weight loss seen in the Placebo mice | – | – | –
O=[N+]([O-])c1ccc(O)c([N+](=O)[O-])c1 [2,4-DNP, 2,4-dinitrophenol] | – | – | – | striking effect at lowering or blocking progression of paralysis | preventing weight loss seen in the Placebo mice | ≥ 10 × | not toxic | no inhibition
